Assay results: publication PMC11224242, “Structural and functional characterization of cyclic pyrimidine-regulated anti-phage system” (Nature Communications, 2024)
pKd: −log10 of the molar value. “And” between values parts separate entries of the source, which are not always exact repeats. Identical values can stand only once.

How the values were obtained:
PsPycTIRCNBD = molecular target: T1, PsPycTIRCNBD (Pseudovibrio sp. W64, UniProt A0ACD6BAZ5); assay: isothermal titration calorimetry; format: binding
T1 construct: dimer with cUMP
T1 sequence (A0ACD6BAZ5 entry or part of it): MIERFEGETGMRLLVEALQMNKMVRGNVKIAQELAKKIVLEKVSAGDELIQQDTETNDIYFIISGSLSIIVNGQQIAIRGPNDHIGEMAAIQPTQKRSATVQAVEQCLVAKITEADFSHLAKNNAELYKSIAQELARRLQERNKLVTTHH
Description: isothermal titration calorimetry on PsPycTIRCNBD

AhPycTIRCNBD = molecular target: T2, AhPycTIRCNBD (Acinetobacter haemolyticus, UniProt N9FD06); assay: isothermal titration calorimetry; format: binding
T2 construct: gene F927_00926
T2 sequence (N9FD06 entry or part of it): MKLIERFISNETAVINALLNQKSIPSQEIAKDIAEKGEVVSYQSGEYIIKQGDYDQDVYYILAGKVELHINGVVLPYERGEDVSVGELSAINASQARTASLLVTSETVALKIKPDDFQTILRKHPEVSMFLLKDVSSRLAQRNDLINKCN
Description: isothermal titration calorimetry on AhPycTIRCNBD

[1] = molecular target: SmPycTIRCNBD (Stenotrophomonas maltophilia); assay: isothermal titration calorimetry; format: binding
Description: isothermal titration calorimetry on SmPycTIRCNBD

NpPycTIRCNBD = NpPycTIRCNBD (Novosphingobium pentaromativorans, UniProt A0AAT8XUA9); assay: isothermal titration calorimetry; format: binding
NpPycTIRCNBD, sequence (A0AAT8XUA9 entry or part of it): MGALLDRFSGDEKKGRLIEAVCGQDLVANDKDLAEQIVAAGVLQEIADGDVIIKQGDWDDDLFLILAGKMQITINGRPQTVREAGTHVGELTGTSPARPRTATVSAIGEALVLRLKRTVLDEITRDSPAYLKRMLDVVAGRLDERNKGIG
Description: isothermal titration calorimetry on NpPycTIRCNBD

AnPycC = molecular target: T3, AnPycC (Anabaena sp. CA = ATCC 33047, UniProt A0ACD6BAV8); assay: LC-MS/MS; format: biochemical; conditions: 0.5 mM UTP, 1 μM enzyme, pH 9.0, 25 °C overnight
T3 construct: full-length, thioredoxin-His tag cut by TEV, extra N-terminal Gly, E. coli BL21(DE3); monomer in solution, dimer in crystal
T3 sequence (A0ACD6BAV8 1-280): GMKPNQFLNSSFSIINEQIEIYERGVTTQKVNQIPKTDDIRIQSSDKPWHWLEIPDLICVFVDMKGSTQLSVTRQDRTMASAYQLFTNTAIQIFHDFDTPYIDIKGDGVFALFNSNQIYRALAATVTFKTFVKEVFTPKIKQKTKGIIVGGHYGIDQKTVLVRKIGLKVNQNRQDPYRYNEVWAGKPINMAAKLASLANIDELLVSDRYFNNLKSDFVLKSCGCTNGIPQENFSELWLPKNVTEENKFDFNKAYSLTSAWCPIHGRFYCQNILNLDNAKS

[2] = molecular target: cUMP-bound PycTIR (gel-filtration data); assay: SEC; gel filtration of cUMP-bound PycTIR (Supplementary Fig. 10)
EaPycC = molecular target: T4, EaPycC (Elizabethkingia anophelis, UniProt A0AAT8XUA8); assay: LC-MS/MS; format: biochemical; conditions: 0.5 mM CTP, 1 μM enzyme, 25 °C overnight
T4 construct: full-length, thioredoxin-His tag cut by TEV, extra N-terminal Gly, E. coli BL21(DE3); homodimer
T4 sequence (A0AAT8XUA8 2-342): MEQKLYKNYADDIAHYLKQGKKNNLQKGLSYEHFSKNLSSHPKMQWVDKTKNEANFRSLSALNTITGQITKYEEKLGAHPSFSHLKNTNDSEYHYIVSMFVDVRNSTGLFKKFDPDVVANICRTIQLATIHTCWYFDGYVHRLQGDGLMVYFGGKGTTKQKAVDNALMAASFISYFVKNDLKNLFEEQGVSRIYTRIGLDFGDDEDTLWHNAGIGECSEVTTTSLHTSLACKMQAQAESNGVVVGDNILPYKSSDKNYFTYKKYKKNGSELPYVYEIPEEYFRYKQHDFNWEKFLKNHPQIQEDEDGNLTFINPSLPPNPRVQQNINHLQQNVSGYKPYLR

## O=c1ccn([C@@H]2O[C@@H]3COP(=O)(O)O[C@H]3[C@H]2O)c(=O)[nH]1 [cUMP]
PsPycTIRCNBD
  pKd: 9.00
AhPycTIRCNBD
  pKd: 6.09
[1]
  pKd: 6.57
NpPycTIRCNBD
  pKd: 9.00
AnPycC
  LC-MS/MS: The production of cUMP by purified AnPycC proteins was confirmed by LC-MS/MS

## cUMP-bound PycTIR (gel-filtration data)
[2]
  stoichiometry N: 2 and 4

## Nc1ccn([C@@H]2O[C@@H]3COP(=O)(O)O[C@H]3[C@H]2O)c(=O)n1 [cCMP]
EaPycC
  LC-MS/MS: an elution peak corresponding to the cCMP product was detected
